# Key:
# [1] = tested on: human MLL-rearranged AML cell lines; test: Cell cycle analysis (EdU, % cells in S phase); type: cell-based; conditions: 100 nM PR-957, 24 hours; MOLM-13, MV-4;11, ML-2, KOPN-8; FIG. 1I
# Description: Immunophenotyping of immature and mature cell compartments and of leukemic cells was performed as described before (Heidel et al., 2013; Heidel et al., 2012). The antibodies used for cell surface staining are provided in Table 1 at the end of section 2 (“Key Resource Table”). Cells were stained in PBS/1% FBS for 1.5 hours at 4° C. SYTOX® Blue Dead Cell Stain (Life Technologies, Darmstadt, Germany) was used to exclude dead cells. Flow cytometry was performed on a LSR-Fortessa or FACS Canto II cytometer (Becton Dickinson, Heidelberg, Germany). Cell cycle analysis was performed using the Click-iT™ Plus EdU Alexa Fluor™ 647 Assay Kit (Thermo Scientific, Waltham, MA, USA) as per the manufacturer's instructions.
# Samples were labeled for FACs based analysis of cell cycle using the Click-iTR EdU assay. n=3 independent experiments; paired t test.
# [2] = tested on: MLL-rearranged murine leukemic cells; test: Methylcellulose colony-forming assay, MLL-rearranged murine leukemic cells; type: cell-based, mouse
# Description: (§1) Primary mouse bone marrow (BM) cells (transduced with MLL-AF9/KRAS, MLL-AF6, or AML1-ETO/KRAS) were seeded in MethoCult GF M3434 (StemCell Technologies) at a concentration of 1×10^3 cells/replicate. Colonies propagated in culture were scored at day 8. For re-plating of primary mouse BM cells, colonies were harvested from the methylcellulose medium, washed with PBS/1% FBS and seeded again at a concentration of 1×10^3 cells/replicate. MOLM-13 or ML-2 cells infected with either control or PSMB8/LMP7-specific shRNAs were plated at a concentration of 1×10^3 cells in MethoCult H4230 (StemCell Technologies) supplemented with 20% FBS and colony numbers were counted on day 10-14.
# MOLM-13 and ML-2 cells = test: Global transcriptome analysis by RNA-sequencing; type: cell-based, human; conditions: 100 nM PR-957, 72 hours, FIG. 3A
# Text: Cells were harvested and resuspended in TRIzol™, and RNA was extracted using the TRIzol-Chloroform method (Heidel et al., 2013). RNA-seq libraries were generated using SMART-Seq v4 Ultra Low Input RNA Kit (Takara Bio USA Inc., Mountain View, CA, USA) followed by Nextera XT (Illumina, San Diego, CA, USA).
# For analysis, 50 bp single-end reads (Illumina) were aligned to reference genome mm10 and gtf.-transcriptome annotation release M7 (GENCODE) using STAR two-pass mode (Dobin et al., 2013).
# GENCODE M7 gtf.-file was used for quantification, performed by STAR, followed by normalization, transformation and differential gene expression analysis in DEseq2 (Love et al., 2014). GSEA was carried out on a public server “Gene Pattern” of Broad Institute (Reich et al., 2006). For analysis of the genetic CRISPRCas9 screen, next generation sequencing was performed on an Illumina NextSeq platform (75 bp, single reads) aiming for a minimum of 30Mio reads per sample.
# Therefore, it was sought to determine to which extent the inhibition of PSMB8/LMP7 also contributes to the transcriptional regulation of human MLL-target genes. […] This cell line was selected for its sensitivity to PR-957 (FIG. 3D) and ability to be transduced among the MLLr cell lines evaluated above. […]
# [3] = tested on: Menin-inhibitor resistant cell lines (MV-4;11 M327I, T349M); test: Relative growth of Menin-inhibitor resistant MV-4;11 cell lines; type: cell-based, human; conditions: resistance mutations M327I and T349M; 50 nM or 100 nM PR-957; FIG. 4L
# Description: MOLM-13, MONO-MAC-6, THP-1, KOPN-8, ML-2, MV-4;11, OCI-AML3, U-937, KASUMI-1, K-562, HL-60 and LAMA-84 cells were purchased from DSMZ (Braunschweig, Germany). Cas9-Blast cell lines are subclones of the respective cell lines and stably transduced with lentiCas9-Blast (Addgene plasmid #52962). Cells were cultured in RPMI 1640 medium (Thermo Fisher Scientific, Waltham, MA, USA) supplemented with 10-20% FBS (Thermo Fisher Scientific) in a humid atmosphere of 5% CO2 at 37° C. MV4;11 cells harboring Menin-inhibitor resistance mediating mutations of Menin were generated by CRISPR-Cas9 technology.
# [4] = tested on: leukemic stem cell (LSC), MLL-AF9; test: Limiting dilution assay of MLL-AF9 leukemic bone marrow cells treated ex vivo (ELDA); type: in vivo, mouse; conditions: 200 nM PR-957 ex vivo 48 hours
# AML1-ETO = test: Methylcellulose colony-forming assay, AML1-ETO transduced murine cells; type: cell-based, mouse; conditions: 100 nM or 200 nM; FIG. 2A right panel
# Description: as §1
structure (smiles),measurement,setting,value
"COc1ccc(C[C@H](NC(=O)[C@H](C)NC(=O)CN2CCOCC2)C(=O)N[C@@H](Cc2ccccc2)C(=O)[C@]2(C)CO2)cc1 [PR-957, (2S)-3-(4-methoxyphenyl)-N-[(2S)-1-[(2S)-2-methyloxiran-2-yl]-1-oxo-3-phenylpropan-2-yl]-2-[[(2S)-2-[(2-morpholin-4-ylacetyl)amino]propanoyl]amino]propanamide]",cell cycle activity (% of cells in S phase),[1],reduced cell cycle activity
same,colony size and shape,[2]; MLL-AF9 transformed leukemia,reduction of colony size and changes in colony shape
same,clonogenic potential (colony counts),"[2]; nanomolar concentrations (100 nM or 200 nM), serial replating, FIG. 2A",profound dose dependent reduction of clonogenic potential
same,genes regulated in both cell lines upon treatment (overlap),MOLM-13 and ML-2 cells,457 genes
same,sensitivity of Menin-inhibitor resistant cell lines to immunoproteasome inhibition,[3],preserved sensitivity
same,reduction in LSC frequency compared to diluent treated controls,[4],more than log-fold reduction
same,LSC frequency,"[4]; ELDA, DMSO 1/4550, FIG. 2H,I",1/57610
same,"reduction of clonogenic potential, non-MLL fusion oncogene AML1-ETO",AML1-ETO,not detectable

# — patent publication US20260174766A1, “COMBINATION OF MENIN INHIBITOR(S) AND IMMUNOPROTEASOME INHIBITOR(S) FOR TREATMENT OF LEUKEMIA” (Medizinische Hochschule Hannover, priority 2022, published 2026)
